# “Also recorded” adds a separate entry of the source.
# Tests used:
# IFNβ [1] = assay: IFNβ induction (TaqMan qRT-PCR) in primary human endothelial cells after dsDNA or hCMV; format: cell-based; details: for IFNβ induction: HUVEC supplemented with the substance, then DNA treatment or hCMV infection
# Description: (§1) Extracellular Ado supplementation enhances anti-viral innate responses: To date, all loss-of function mutations in ADA2 that cause PAN/DADA2 vasculitis either reduce protein levels of ADA2 or dramatically impair enzymatic activity of ADA2, such that loss of enzymatic activity in serum is the defining characteristic of the disease. Loss of ADA2 activity in serum alters catabolism of Ado/dAdo released into circulation from cells and tissues, or produced by dephosphorylation of extracellular ATP/dATP. Ado and dAdo are profoundly immuno-modulatory nucleosides, exerting many effects on cells. Vascular endothelial cells metabolize Ado/dAdo in blood, yet excessive or dysregulated Ado/dAdo signaling has not been examined in endothelium. To examine the effects of Ado on vascular endothelial cells, HUVEC were supplemented with extracellular Ado 24 h prior to treatment with DNA or infection with hCMV.
# Cells: Primary human cells were obtained from Lonza as single donor aliquots. Wherever possible, both male and female donors were analyzed. Human umbilical vascular endothelial cells (HUVEC) and Human aortic endothelial cells (HAEC) were maintained in EGM-2 Bulletkit growth media (Lonza) supplemented with 2% HI-FBS. Human dermal microvascular endothelial cells (HDMVEC), human brain microvascular endothelial cells (HBMVEC), and human kidney microvascular endothelial cells (HKMVEC) were maintained in EBM-2MV Bulletkit growth media (Lonza) supplemented with 5% HI-FBS. Normal human bronchial […] cells (NHBE) were maintained in BEGM Bulletkit growth media (Lonza). U937 were maintained in RPMI supplemented with 5% HI-FBS. For activation of cell-intrinsic innate immune responses through the STING-IFN-I pathway, all cells were stimulated for 3 h with poly dA:dT or VACV70 dsDNA (200-1000 ng/mL) using LyoVec as a transfection reagent (Invivogen), or infected for 3 h with hCMV MOLD at MOI=1.
# Real-time PCR: Total RNA was extracted using the Quick-RNA MiniPrep Plus kit (Zymo Research). Total RNA (200-1000 ng) was used to synthesize complementary DNA using the qScript cDNA synthesis kit (Quanta). Samples were diluted 10-fold and gene expression was analyzed by real-time quantitative PCR on a CFX96 Touch Detection System (Bio-Rad) using FastStart SYBR Green Master Mix (Roche) or TaqMan Universal PCR Master Mix (ThermoFisher Scientific). […]
# IRF3 = IRF3 nuclear translocation (in situ immunofluorescence) in primary human endothelial cells after dsDNA or hCMV; format: cell-based; details: primary human endothelial cells (HUVEC) supplemented with the substance, then DNA treatment or hCMV infection
# Description: as §1
# Cells: Primary human cells were obtained from Lonza as single donor aliquots. Wherever possible, both male and female donors were analyzed. Human umbilical vascular endothelial cells (HUVEC) and Human aortic endothelial cells (HAEC) were maintained in EGM-2 Bulletkit growth media (Lonza) supplemented with 2% HI-FBS. […]
# IRF3 immunostaining: Cells were fixed with 4% PFA for 20 min, washed 3 times with 1×PBS, permeabilized with 0.2% Triton X-100 for 10 min, and blocked with 10% FBS for 30 min Cells were incubated with IRF-3 primary antibody (clone FL-425, Santa Cruz) at 1:200 dilution for 30 min and washed 3 times with 1×PBS. […] Images were acquired at 10× magnification on ImageXpress Micro (Molecular Devices), and images were analyzed using the enhanced translocation module of MetaXpress (Molecular Devices). Individual cells were scored as positive for nuclear translocation if >70% of IRF3 fluorescence was spatially correlated with DAPI fluorescence. […]
# IFNβ [2] = assay: IFNβ induction in monocytes; format: cell-based, human
# Experimental: (§2) Real-time PCR: Total RNA was extracted using the Quick-RNA MiniPrep Plus kit (Zymo Research). Total RNA (200-1000 ng) was used to synthesize complementary DNA using the qScript cDNA synthesis kit (Quanta). Samples were diluted 10-fold and gene expression was analyzed by real-time quantitative PCR on a CFX96 Touch Detection System (Bio-Rad) using FastStart SYBR Green Master Mix (Roche) or TaqMan Universal PCR Master Mix (ThermoFisher Scientific).
# Lentivirus production for shRNA and CRISPR: For shRNA experiments, sequences were selected from the Sigma mission 2.0 library. For CRISPR experiments, sgRNA sequences selected using the CHOPCHOP algorithm and were cloned into the lentiCRISPrv2 vector […]. Plasmids were transformed and amplified in Dh5α competent E. Coli, and purified using the EndoFree Plasmid Maxi kit (QIAGEN). For lentivirus preparation, 293T cells seeded in 6-well plates and transfected with pLKO.1 or lentiCRIPRv2 plasmids and MISSION Lentiviral Packaging Mix (Sigma), using JetPrime transfection reagent (Polyplus). After 24 h, media was changed to full growth media supplemented with 30% FBS. After 48 h, lentiviral supernatants were collected and HUVEC or U937 cells were spin-infected by centrifugation for 1 h at 37 C at 2000 rpm. Cells were selected in 3 ug/mL puromycin media for 2 weeks.
# vascular endothelium = details: references 22-24; cited from earlier work
# [3] = test system: pro-inflammatory and anti-viral genes; assay: Pro-inflammatory cytokine and innate immune gene expression in endothelial cells (qRT-PCR, RNAseq); format: cell-based, human; details: for pro-inflammatory cytokine production: after viral infection, extracellular supplementation; for expression of IL-6 and TNF cytokines: endothelial cells after supplementation
# Experimental: as §2
# RNAseq: Total RNA was extracted from 10^7 cultured cells using the Quick-RNA MiniPrep Plus kit (Zymo Research). RNA quality was assessed using an Agilent Tapestation, such that all samples should produce RIN^e scores above 9.0. For each sample, 500-1000 ng of total RNA was then prepared into an mRNA library using the Truseq Stranded mRNA Library Prep Kit (Illumina). Resulting libraries were then pooled at equimolar concentrations using Quant-iT PicoGreen dsDNA Assay Kit (Life Technologies) and were deep sequenced on an Illumina 2500 in Rapid Run Mode, producing between 10M and 90M single-end reads with lengths of 50 nucleotides per sample.
# The single-end reads that passed Illumina filters were filtered for reads aligning to tRNA, rRNA, adapter sequences, and spike-in controls. The reads were then aligned to UCSC hg19 reference genome using TopHat (v 1.4.1). DUST scores were calculated with PRINSEQ Lite (v 0.20.3) and low-complexity reads (DUST>4) were removed from the BAM files. The alignment results were parsed via the SAMtools to generate SAM files. Read counts to each genomic feature were obtained with the htseq-count program (v 0.6.0) using the “union” option. After removing absent features (zero counts in all samples), the raw counts were then imported to R/Bioconductor package DESeq2 [5] to identify differentially expressed genes among samples. DESeq2 normalizes counts by dividing each column of the count table (samples) by the size factor of this column. The size factor is calculated by dividing the samples by geometric means of the genes. This brings the count values to a common scale suitable for comparison. P-values for differential expression are calculated using binomial test for differences between the base means of two conditions. These p-values are then adjusted for multiple test correction using Benjamin Hochberg algorithm to control the false discovery rate. […] Cluster analyses including principal component analysis (PCA) and hierarchical clustering were performed using standard algorithms and metrics. Hierarchical clustering was performed using complete linkage with Euclidean metric.
# STING = STING mRNA expression (TaqMan qRT-PCR) in HUVEC; format: cell-based, human; details: supplemented cells, resting and stimulated
# Experimental: as §2
# IFNβ [4] = assay: IFNβ induction (TaqMan qRT-PCR) in primary human endothelial cells after dsDNA or hCMV; format: cell-based; details: for hCMV induced IFNβ: pre-treatment, siControl and siADA2-treated endothelial cells (HUVEC, HBMVEC, HDMVEC)
SMILES,IFNβ induction (IFNβ [1]),IRF3 activation / nuclear translocation (IRF3),uptake of circulating nucleoside by the vascular endothelium (vascular endothelium),pro-inflammatory cytokine production [3],STING mRNA levels / expression (STING),also measured
"Nc1ncnc2c1ncn2[C@H]1C[C@H](O)[C@@H](CO)O1 [dAdo, 2′-deoxyadenosine]",significantly enhances; also recorded: augmented,significantly enhances; also recorded: augmented,within a few seconds,enhances,up-regulated,IFNβ induction (IFNβ [2]): enhanced
"OC[C@H]1O[C@@H](n2cnc3c(O)ncnc32)C[C@@H]1O [dIno, deoxyinosine]",–,–,–,–,up-regulated,"IFNβ mRNA induction (IFNβ [1]; prolonged supplementation of HUVEC, dsDNA treatment): specifically augmented"
"CCNC(=O)[C@H]1O[C@@H](n2cnc3c(N)ncnc32)[C@H](O)[C@@H]1O [NECA, 5′-N-ethylcarboxamidoadenosine]",did not enhance; also recorded: does not significantly affect,did not enhance; also recorded: no effect; also recorded: does not significantly affect,–,–,–,–
"Nc1ncnc2c1ncn2[C@@H]1O[C@H](CO)[C@@H](O)[C@H]1O [Ado, adenosine]",significantly enhanced; also recorded: augmented; also recorded: enhances,significantly enhanced; also recorded: augmented; also recorded: enhances,within a few seconds,enhances,–,IFNβ induction (IFNβ [1]; listed as adenosine): enhances; expression of IL-6 and TNF cytokines [3]: enhanced expression; expression of IL-6 and TNF cytokines ([3]; listed as adenosine): enhances
OC[C@H]1O[C@@H](n2cnc3c2NC=NC[C@H]3O)C[C@@H]1O [pentostatin],–,–,–,–,–,"augmentation of IRF3 and IFNβ responses by extracellular Ado and dAdo (IFNβ [4]; in the presence of pentostatin to inhibit ADA2, endothelial cells): enhanced"
OCCN(CCO)c1nc(N2CCCCC2)c2nc(N(CCO)CCO)nc(N3CCCCC3)c2n1 [dipyridamole],–,–,–,–,–,"IFNβ levels (IFNβ [4]; TREX1-depleted cells): dampened; dIno-augmented IFNβ (IFNβ [4]; cells supplemented with dIno, sensitivity to DPM): sensitive; hCMV induced IFNβ (IFNβ [4]): significantly reduced; also recorded: dose-dependent decrease; hCMV induced IFNβ (IFNβ [4]; listed as Dipyridamole): reduced; expression of pro-inflammatory and anti-viral genes ([3]; ADA2-depleted and dAdo-supplemented cells, whole-transcriptome RNAseq): broadly inhibited; cytokine production ([3]; ADA2/CECR1-depleted cells): reduces"
